Experimental findings from ChEMBL document CHEMBL4017528, “Fragment-Based Discovery and Optimization of Enzyme Inhibitors by Docking of Commercial Chemical Space” (J Med Chem, 2017) are described below.

Experiment [1] deals with Oxidized purine nucleoside triphosphate hydrolase (Homo sapiens, UniProt P36639). The experiment can be described thus: Inhibition of human recombinant His-tagged MTH1 expressed in Escherichia coli BL21 using dGTP as substrate after 15 mins by malachite green reagent-based assay.
For another experiment, the system named is HeLa. The experiment can be described thus: Cytotoxicity against human HeLa cells after 72 hrs by WST-8 assay. The experiment is classed as functional, cell-based.

Structures are written as SMILES.

For `Nc1nc(SCCc2ccccc2)c2nc[nH]c2n1`, the half-maximal inhibitory concentration (IC50) in experiment [1] came to 0.17 µM.

Turning to `Cc1nc(N)nc2ccccc12`, the IC50 in experiment [1] was found to be 5.6 µM. `Nc1nc(NCCc2ccccc2)c2nc[nH]c2n1` displayed an EC50 with HeLa of 35 µM. Take `CSc1nc2c(N)ncnc2[nH]1`: in experiment [1], the IC50 came to 24 µM.
